Patent US20050090451A1, “Treatment of cancer with glutamine” (priority 2002, published 2005)
Converted amounts (≈) assume the structure as drawn. Read-outs that look alike come from different tables or passages of the source. Square brackets hold non-standard residues; d marks the D form. Peptide text beside a SMILES is read from it. Sar = CNCC(=O)O

Key:
Caco-2 cell monolayers [1] = test: Relative cellular uptake into Caco-2 monolayers, vehicle vs non-vehicle; conditions: saturated solutions; AES-14 vehicle vs HBSS; FIGS. 3-6
Experimental: (§1) Uptake and permeability of each compound was measured in the apical-to-basolateral direction, with and without vehicle.
(§2) Each compound was tritiated. ^14C-mannitol was used as an evaluation of monolayer/cell integrity (i.e. as a low uptake/permeability marker).
(§3) Uptake and Permeability Assessments. Compound cellular uptake into and permeability across Caco-2 monolayers was measured.
(§4) HBSS was used when no pharmaceutical vehicle was present for each of the four compounds. […] Monolayer integrity was monitored using ^14C-mannitol permeability. Mannitol uptake was also studied.
(§5) Uptake and permeability studies were conducted using Transwelle inserts in the apical to basolateral direction, at intervals of 10 sec., 60 sec., and 5 min.
(§6) ^14C-mannitol and ^3H-drugs were quantified by liquid scintillation counting. For uptake studies, at designated time points (10 sec, 60 sec, and 5 min), the donor solution was aspirated off. The cell monolayer was washed twice with ice cold HBSS to remove any residual binding and then dissolved in 1 ml of the cell solubilizing agent, Solvable®. The cell lysate (0.5 ml) was added to 5 ml scintillation cocktail (Econosafe®) and counted on liquid scintillation counter (Beckman LS5801, Columbia, Md.). For permeability studies, 0.5 ml of received solution was added to 5 ml scintillation cocktail (Econosafe®) and counted on liquid scintillation counter.

Caco-2 cell monolayers [2] = test: Caco-2 permeability, apical-to-basolateral; conditions: Aesgen-14 vehicle vs no vehicle; saturated solutions; 5 minute period; FIGS. 8-11
Experimental: (§7) Compound cellular uptake into and permeability across Caco-2 monolayers was measured.
(§8) Monolayer integrity was monitored using ^14C-mannitol permeability. Mannitol uptake was also studied.
as §5, §6
(§9) Permeability is an absolute measure (units of cm/Sec or velocity) and can be determined even though the absolute drug concentrations were not known.

Caco-2 cell monolayers [3] = tested on: Caco-2 cell monolayers
Experimental: as §1, §2, §3, §4, §5, §6

Caco-2 cell monolayers [4] = tested on: Caco-2 cell monolayers; remark: listed apart in the source
Experimental: as §7, §8, §5, §6, §9

tumor = conditions: cited from earlier work
[5] = tested on: human gastrointestinal epithelial cell line (CaCo); test: Cellular glutamine uptake in CaCo cells (HPLC); format: cell-based
Experimental: Both samples were allowed to stand for 1 day at room temperature. The supernatant was decanted from the residue and used for the cellular uptake determination.
On Day 1, cells from a human gastrointestinal epithelial cell line (CaCo) were plated at a density of 0.5×10^6 cells per well in a 6-well tissue culture dish.
At time points 0, 10, 20, 40, and 60 seconds the test material was aspirated and the cells washed three times (3×) with chilled (4° C.) phosphate buffered saline (PBS), followed by the addition of 1.0 ml of perchloric acid. Cells were harvested by scraping, then aspiration by pipet into a 1.7 ml tube.
The harvested cells were sonicated for 10 seconds, and 500 μl of sonicated cells were transferred into a 1.7 ml tube. The perchloric acid was neutralized by the addition of 130 μl of 2M KHCO3, and the resulting mixture was frozen overnight at −80° C.
Upon thawing, the sample was centrifuged for 10 minutes at 14,000 rpm and the supernatants were transferred to new 1.7 ml tubes and frozen at −80° C. The resulting clarified samples were thawed and diluted 1:3 with deionized water. […] After incubation for two minutes at room temperature, a 20 μl sample was injected on a Hypersil® C18 Elite 5 μm HPLC column using 70:30 acetonitrile:water as the mobile phase. Glutamine levels, measured as μg/ml, were detected at 340 nm.

[6] = The Merck Index, cited from earlier work
[7] = tested on: natural killer (NK) cell cytotoxicity; test: NK cell cytotoxicity, 51-Chromium release assay with YAC-1; format: in vivo, rats; conditions: only at week 1 and week 11; FIG. 31
Experimental: Rats were treated as in Example 5.
NK cell cytotoxicity was measured as follows: Aseptically removed spleens were minced using a sterile scalpel, and lymphocytes were teased from the splenic capsule with warm RPMI 1640 (Gibco BRL, Life Technologies Inc., Grand Island, N.Y.). The resulting cells were poured into 50 ml conical tubes, which were filled with ammonium chloride (0.83%) (Sigma Chemical Co., St. Louis, Mo.) to lyse the red cells. The cell solution was then centrifuged for 10 minutes at 1000 rpm. The supernatant was decanted, and the cell pellet was vortexed with RPMI (no GLN) and centrifuged again. Next, the cells were resuspended in approximately 10 ml of RPMI containing 10% fetal bovine serum […] (Gibco BRL, Life Technologies Inc., Grand Island, N.Y.) supplemented with 1% GLN. This cell suspension was placed in Petri dishes and incubated in 6% CO2 at 37° C. for 30 minutes. After incubation to assure adherence of the monocytes, the nonadherent lymphocytes were counted (1:1 with crystal violet stain). Approximately 7×10^6 total cells from each spleen were incubated for 3 days in RPMI containing 10% FBS and recombinant human IL-2 (500 U/ml). […] The calculation of the NK activity is expressed as the following equation: [formula]

[8] = tested on: gut glutathione (GSH) production; test: Gut GLN and GSH fluxes in DMBA-treated rats; format: in vivo, Sprague-Dawley rats; conditions: 20 mg DMBA gavage; 1 week after DMBA; FIG. 15
Experimental: Methods: 80 Sprague-Dawley rats were randomized to 4 groups (n=20/group): DMBA+GLN, DMBA+FA, OIL+GLN, OIL+FA. Rats (age 50 days) were gavaged with a 1-time dose of 20 mg DMBA or oil. Rats were gavaged with AES-14 (1 gm GLN/kg/day) or an isonitrogenous amount of Freamine (FA) from 1 week before till sacrifice at 1 week after DMBA (greatest effect on gut GSH extraction). Arterial and portal blood was taken for GLN and GSH levels, and blood flow measured using 14-C-PAH. Gut GLN and GSH fluxes (uptake or production) were calculated.

[9] = tested on: GSH transport in jejunal basolateral membrane vesicles (BLMV); test: [3H]Glutathione uptake in jejunal basolateral membrane vesicles after DMBA; format: in vivo, Sprague-Dawley rats; conditions: 100 mg/kg DMBA single dose; one week after; FIG. 26
Experimental: Methods: The transport of GSH in the jejunal basolateral membrane vesicles (BLMV) was investigated in Sprague-Dawley rats treated with a single dose of 100 mg/kg DMBA (n=15) or sesame oil (n=15) as controls. The animals were pair-fed pre-defined chow and were given water ad libitum. All rats were sacrificed one week after the DMBA administration. Jejunal basolateral membrane vesicles (BLMV) were prepared using Percoll Colloidal PVP coated silica differential centrifugation technique. All steps were carried out at 2-4° C. Jejunal mucosal scraping was homogenized in isolation buffer containing 180 mM sucrose/2 mM Tris being adjusted to pH 7.40 by 2 mM Hepes using a Polytron homogenizer (Brinkman, Rexdale, ON), at setting 2 to 6 then 6 to 2, over 55 seconds. The homogenate was centrifuges for 10 minutes at 1000 g. The supernatant was filtered through four layers gauze and recollected. The supernatant containing basolateral membrane material then was centrifuged 15 minutes at 22,000 g. […] Protein concentration was determined by the Bio-Rad protein assay (Bio-Rad Laboratories, Hercules, Calif.).
The uptake of [^3H]Glutathione was measured by a rapid mixing/filtration technique. […] All vials were counted with liquid scintillation system LS 1801 (Beckman coulter, Fullerton, Calif.).

[10] = Portal blood and gut mucosa GSH after DMBA; format: in vivo, Sprague-Dawley rats; conditions: 100 mg/kg DMBA, one week after
in vitro = conditions: human, Caco-2, Mannitol Permeability with Vehicle
Experimental: as §7, §8, §5, §6, §9

Question: For `CN(CC(=O)O)C(=O)CN` [glycylsarcosine] (H-Gly-[Sar]-OH), which “enhancement of cellular drug uptake by vehicle (relative uptake vehicle vs non-vehicle)” value (Caco-2 cell monolayers [1]) is on record?
Answer: about four-fold

Question: And the “effect of vehicle on permeability” value (Caco-2 cell monolayers [2])?
Answer: no effect

Question: Which “enhancement of cellular uptake by vehicle” value (Caco-2 cell monolayers [3]) does the source give for `NC(=O)CC[C@H](N)C(=O)O` [L-glutamine] here?
Answer: enhanced

Question: And the “effect of vehicle on permeability” value (Caco-2 cell monolayers [4])?
Answer: no effect

Question: What about the “tumor volume loss when glutamine was added to the diet” value (tumor; rats receiving methotrexate, Klimberg 1992) of the same molecule?
Answer: nearly doubled

Question: And the “decrease of tumor growth” value (tumor; rats, glutamine by gavage or as a food additive, within three weeks, Fahr 1994)?
Answer: 40%

Question: What about the “mean cellular glutamine uptake” value ([5]; normal cells, incubation time 0 seconds) of the same molecule?
Answer: 3.53 µg/mL

Question: And the “mean cellular glutamine uptake” value ([5]; normal cells, incubation time 10 seconds)?
Answer: 10.30 µg/mL

Question: What about the “mean cellular glutamine uptake” value ([5]; normal cells, incubation time 20 seconds) of the same molecule?
Answer: 2.48 µg/mL

Question: What about the “mean cellular glutamine uptake” value ([5]; normal cells, incubation time 40 seconds) of the same molecule?
Answer: 3.23 µg/mL

Question: What about the “mean cellular glutamine uptake” value ([5]; normal cells, incubation time 60 seconds) of the same molecule?
Answer: 4.85 µg/mL

Question: What about the “mean cellular glutamine uptake” value ([5]; starved cells (L-glutamine deficient medium), incubation time 0 seconds) of the same molecule?
Answer: 1.33 µg/mL

Question: What about the “mean cellular glutamine uptake” value ([5]; starved cells, incubation time 10 seconds) of the same molecule?
Answer: 1.43 µg/mL

Question: And the “mean cellular glutamine uptake” value ([5]; starved cells, incubation time 20 seconds)?
Answer: 1.49 µg/mL

Question: What about the “mean cellular glutamine uptake” value ([5]; starved cells, incubation time 40 seconds) of the same molecule?
Answer: 2.23 µg/mL

Question: And the “mean cellular glutamine uptake” value ([5]; starved cells, incubation time 60 seconds)?
Answer: 49.96 µg/mL

Question: And the solubility in water ([6]; 0° C.)?
Answer: 18 g/L (≈ 123 mM)

Question: What about the solubility in water ([6]; 18° C.) of the same molecule?
Answer: 26 g/L (≈ 178 mM)

Question: And the solubility in water ([6]; 30° C.)?
Answer: 48 g/L (≈ 328 mM)

Question: What does the source list for `NC(=O)C[C@H](N)C(=O)O` [L-asparagine]?
Answer: enhancement of cellular drug uptake by vehicle (relative uptake vehicle vs non-vehicle) (Caco-2 cell monolayers [3]): about four-fold; effect of vehicle on permeability (Caco-2 cell monolayers [4]): no effect

Question: For `Nc1nc2c(ncn2COCCO)c(=O)[nH]1` [acyclovir], which “effect of vehicle on permeability” value (Caco-2 cell monolayers [4]) is on record?
Answer: no effect

Question: Which results are given for `Cc1c2ccccc2c(C)c2c1ccc1ccccc12` [DMBA, 7,12-dimethylbenz[a]anthracene]?
Answer: NK cell activity vs non-DMBA controls [7]: lower; effect on gut GLN metabolism [8]: not affecting; effect on normal gut GSH production (negative flux) [8]: abrogated; decrease of the rate of total GSH uptake by BLMV vs control group [9]: 42%; decrease of portal blood GSH concentration ([10]; FIG. 27): 34%; increase of gut mucosa GSH ([10]; FIG. 28): two-fold

Question: Which results are given for `OC[C@@H](O)[C@@H](O)[C@H](O)[C@H](O)CO` [Mannitol, mannitol]?
Answer: effect of vehicle on mannitol relative uptake (Caco-2 cell monolayers [3]): no effect; Mannitol Permeability with Vehicle (Caco-2 cell monolayers [4]): Below LOQ; Mannitol Permeability without Vehicle (Caco-2 cell monolayers [4]): Below LOQ; effect of vehicle on mannitol permeability (Caco-2 cell monolayers [4]): no effect; Papp A→B at 5 min (in vitro): 0.916 ×10⁻⁶ cm/s
